The test deals with LG0567-F671-PDC KRAS tumor spheroid viability. Kind of test: Anticancer human tumor LG0567-F671-PDC patient-derived lung adenocarcinoma cell line growth inhibition [KRAS2]. Conditions: spheroids with HUVEC and MSC; for viability, T/C: stronger effect = lower value. The gist of the method: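 Combination screen of spheroid viability in tumor-cell co-cultures with endothelial (HUVEC) and mesenchymal stem cell stroma. Each agent was tested in half-log dilutions, topping at clinical Cmax or at 10 microM without a known Cmax.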

Where [1] appears, read: curve of first compound, second compound 0.1 µM.
Where [2] appears, read: curve of first compound, second compound 0.316 µM.
[3] abbreviates: curve of first compound, second compound 1 µM.
Setting [4] is: curve of first compound, second compound 3.16 µM.
Where [5] appears, read: curve of first compound, second compound 10 µM.
[6] abbreviates: second compound 0.1 µM, first compound 0.000316 µM.
Setting [7] is: second compound 0.1 µM, first compound 0.001 µM.
[8] abbreviates: second compound 0.1 µM, first compound 0.00316 µM.
Where [9] appears, read: second compound 0.1 µM, first compound 0.01 µM.
The mark [10] stands for this setting: second compound 0.1 µM, first compound 0.0316 µM.
Where [11] appears, read: second compound 0.316 µM, first compound 0.000316 µM.
Setting [12] is: second compound 0.316 µM, first compound 0.001 µM.
Setting [13] is: second compound 0.316 µM, first compound 0.00316 µM.
[14] abbreviates: second compound 0.316 µM, first compound 0.01 µM.
Where [15] appears, read: second compound 0.316 µM, first compound 0.0316 µM.
[16] abbreviates: second compound 1 µM, first compound 0.000316 µM.
The mark [17] stands for this setting: second compound 1 µM, first compound 0.001 µM.
The mark [18] stands for this setting: second compound 1 µM, first compound 0.00316 µM.
Setting [19] is: second compound 1 µM, first compound 0.01 µM.
The mark [20] stands for this setting: second compound 1 µM, first compound 0.0316 µM.
[21] abbreviates: second compound 3.16 µM, first compound 0.000316 µM.
Setting [22] is: second compound 3.16 µM, first compound 0.001 µM.
The mark [23] stands for this setting: second compound 3.16 µM, first compound 0.00316 µM.
[24] abbreviates: second compound 3.16 µM, first compound 0.01 µM.
The mark [25] stands for this setting: second compound 3.16 µM, first compound 0.0316 µM.
The mark [26] stands for this setting: second compound 10 µM, first compound 0.000316 µM.
[27] abbreviates: second compound 10 µM, first compound 0.001 µM.
Setting [28] is: second compound 10 µM, first compound 0.00316 µM.
The mark [29] stands for this setting: second compound 10 µM, first compound 0.01 µM.
[30] abbreviates: second compound 10 µM, first compound 0.0316 µM.

Molecules are shown by their SMILES.
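Further: drug exposure lasted seven days after spheroids formed for three days.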
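Wherever viability, T/C is given: 100% = DMSO vehicle control viability.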

As to `CC(=O)Nc1cccc(-n2c(=O)n(C3CC3)c(=O)c3c(Nc4ccc(I)cc4F)n(C)c(=O)c(C)c32)c1` + C=CC(=O)N1CCN(c2nc(=O)n(-c3c(C)ccnc3C(C)C)c3nc(-c4c(O)cccc4F)c(F)cc23)C(C)C1, the IC50 (as a rule, the point on the concentration scale where inhibition reaches its midpoint) under setting [1] was below 0.1 nM; the IC50 under setting [2] is below 0.1 nM; the half-maximal inhibitory concentration (IC50) under setting [3] is below 0.1 nM; the IC50 under setting [4] was below 0.1 nM; the IC50 under setting [5] was below 0.1 nM. For the same molecule, the viability, T/C – broadly, the ratio of treated to control – (second compound 0.1 µM, first compound 0.0001 µM) was 26.4%; the viability, T/C under setting [6] was 25.5%; the viability, T/C under setting [7] is 26.4%; the viability, T/C under setting [8] was 27.6%; the viability, T/C under setting [9] is 12.1%; the viability, T/C under setting [10] is 4.13%. In addition, the viability, T/C is, setting by setting: (second compound 0.316 µM, first compound 0.0001 µM) 24.9%; under setting [11], 24.7%; under setting [12], 28.9%; under setting [13], 14.2%; under setting [14], 8.8%; under setting [15], 2.68%. The viability, T/C (second compound 1 µM, first compound 0.0001 µM) is 30.5%; the viability, T/C under setting [16] was 28.2%; the viability, T/C under setting [17] was 22.8%; the viability, T/C under setting [18] is 17.7%; the viability, T/C under setting [19] is 8.78%; the viability, T/C under setting [20] is 3.83%. Besides, the viability, T/C runs as follows: (second compound 3.16 µM, first compound 0.0001 µM) 26.7%; under setting [21], 27.7%; under setting [22], 20.1%; under setting [23], 10.5%; under setting [24], 10.7%; under setting [25], 3.27%. Besides, the viability, T/C (second compound 10 µM, first compound 0.0001 µM) is 20.3%; the viability, T/C under setting [26] was 18.9%; the viability, T/C under setting [27] was 16.9%; the viability, T/C under setting [28] was 11.7%; the viability, T/C under setting [29] was 6.78%; the viability, T/C under setting [30] was 4.36%.

As to `C=CC(=O)N1CCN(c2nc(=O)n(-c3c(C)ccnc3C(C)C)c3nc(-c4c(O)cccc4F)c(F)cc23)C(C)C1` (centres undefined), the viability, T/C by setting is: (compound 0.1 µM) 25.5% [middle of 17 runs]; (compound 0.316 µM) 23.7% [middle of 17 runs]; (compound 1 µM) 25.1% [middle of 17 runs]; (compound 3.16 µM) 24.4% [middle of 17 runs]; (compound 10 µM) 23.8% [middle of 17 runs]. In addition, the IC50 (compound alone, run of 07/12/2021) is below 100 nM; the IC50 (compound alone, run of 07/19/2021) was below 100 nM; the IC50 (compound alone, run of 07/26/2021) was below 100 nM.

Take `CC(C)n1nc(-c2ccc3oc(N)nc3c2)c2c(N)ncnc21` + CC1OCC2(CCN(c3cnc(Sc4ccnc(N)c4Cl)c(N)n3)CC2)C1N: the IC50 under setting [1] is below 0.316 nM; the IC50 under setting [2] was below 0.316 nM; the IC50 under setting [3] was below 0.316 nM; the IC50 under setting [4] was below 0.316 nM; the IC50 under setting [5] was below 0.316 nM. In addition, the viability, T/C is 43.3% under setting [6]; 48.6% under setting [7]; 25.5% under setting [8]; 18% under setting [9]; 16.2% under setting [10]; 10.6% (second compound 0.1 µM, first compound 0.1 µM). For the same molecule, the viability, T/C is, setting by setting: under setting [11], 35.9%; under setting [12], 29%; under setting [13], 21%; under setting [14], 11.8%; under setting [15], 7.3%; (second compound 0.316 µM, first compound 0.1 µM) 6.32%. For the same molecule, the viability, T/C under setting [16] is 25.8%; the viability, T/C under setting [17] was 18.8%; the viability, T/C under setting [18] is 11.4%; the viability, T/C under setting [19] was 5.96%; the viability, T/C under setting [20] was 4.63%; the viability, T/C (second compound 1 µM, first compound 0.1 µM) is 3.58%. Besides, the viability, T/C is 17.4% under setting [21]; 12% under setting [22]; 6.04% under setting [23]; 2.59% under setting [24]; 2.37% under setting [25]; 1.36% (second compound 3.16 µM, first compound 0.1 µM). The viability, T/C is, setting by setting: under setting [26], 7.01%; under setting [27], 5.93%; under setting [28], 3.89%; under setting [29], 2.31%; under setting [30], 1.59%; (second compound 10 µM, first compound 0.1 µM) 1.8%.

As to `CC(=O)OC12COC1CC(O)C1(C)C(=O)C(O)C3=C(C)C(OC(=O)C(O)C(NC(=O)OC(C)(C)C)c4ccccc4)CC(O)(C(OC(=O)c4ccccc4)C21)C3(C)C` (centres undefined), the viability, T/C (compound 0.01 µM) is 67% [middle of 5 runs]; the viability, T/C (compound 0.0316 µM) is 57.6% [middle of 5 runs]; the viability, T/C (compound 0.1 µM) was 63.3% [middle of 5 runs]; the viability, T/C (compound 0.316 µM) is 63.1% [middle of 5 runs]; the viability, T/C (compound 1 µM) is 73.7% [middle of 5 runs]; the viability, T/C (compound 3.16 µM) was 70.1% [middle of 5 runs].

The values above are taken from PubChem BioAssay AID1963856 (Molecular Pharmacology Branch, DTP, NCI, 2024).
